Experimental data published in patent US20230293412A1, “SHAMPOOS AND METHODS OF PREPARING AND USING THE SAME” (SHANDONG BENZHEN COSMETICS CO., LTD, priority 2020, published 2023).

Key:
[1] = Surface tension of surfactants diluted 200 and 6000 times; assay type: physicochemical; conditions: 25° C.; for Surface tension 1:200: surfactant diluted 200 times with triple distilled water; for Surface tension 1:6000: surfactant diluted 6000 times with triple distilled water
Description: We classify surfactants into three types: anionic surfactants, zwitterionic surfactants, and nonionic surfactants. Experimental studies on the surface tension and acute toxicity of fish were conducted on the above-mentioned main surfactants and other kinds of surfactants used in shampoo, bath and other care products.
(§1) Test method. The experimental environment is at a constant temperature of 25° C., the surfactants is diluted 200 and 6000 times with triple distilled water. The surface tension is tested by JY-200C full-automatic interfacial tensiometer, referring to (GB5545 Surfactant Determination of surface tension by pulling up liquid film). The fish acute toxicity test is carried out tin the aqueous solution diluted 6000 times with surfactant, referencing to (GB/T 21281-2007 fish acute toxicity test classification test method of hazardous chemicals).

fish = test: Fish acute toxicity test of surfactants; assay type: in vivo; conditions: for survival time: fish in aqueous solution of surfactant diluted 6000 times, 25° C.; for fish survival: fish in surfactant solution at 1:6000
Description: as §1

Compound | Surface tension 1:200 [1] | Surface tension 1:6000 [1] | survival time (fish) | fish survival (fish)
Fatty alcohol polyoxyethylene ether [AEO-9] | 30.2 mN/m | 30.4 mN/m | 18 min | –
Coconut oil fatty acid diethanolamide [Shampoo 6501] | 26.0 mN/m | 27.6 mN/m | 44 min | –
Sodium α-alkenyl sulfonate [AOS] | 31.8 mN/m | 41.8 mN/m | – | –
Imidazoline (import) [ZMLj] | 28.5 mN/m | 31.3 mN/m | 64 min | –
Sodium Cocoyl Isethionate-85 [SCI-85] | 30.6 mN/m | 42.8 mN/m | 24 min | –
Fatty alcohol polyoxyethylene ether [AEO-3] | 27.2 mN/m | 27.3 mN/m | 27 min | –
Lauramide propyl amine oxide [Shampoo 4501] | 30.5 mN/m | 31.2 mN/m | 15 min | –
Sodium dodecyl ether phosphate [Shampoo 1211] | 35.2 mN/m | 40.5 mN/m | 284 min | –
Alkyl glycoside (import) [APGj] | 28.1 mN/m | 28.6 mN/m | 25 min | –
Sodium secondary alkyl sulfonate [SAS] | 31.3 mN/m | 41.5 mN/m | 41 min | –
Methyl glucose dioleate [DOE-120] | 42.6 mN/m | 49.4 mN/m | >1440 min | 24 h
CCCCCCCCCCCCOS(=O)(=O)[O-].[Na+] [Shampoo K12, Sodium lauryl sulfate] | 35.0 mN/m | 40.8 mN/m | – | –
cocamidopropyl betaine [CAB] | 31.3 mN/m | 32.4 mN/m | 27 min | –
Alkyl glycoside (C12-C14) [APG2] | 28.2 mN/m | 28.5 mN/m | 25 min | –
Sulfobetaine [ASB] | 35.3 mN/m | 47.5 mN/m | 42 min | –
CCCCCCCCCCCCOS(=O)(=O)O.N [Shampoo K12-A, ammonium lauryl sulfate] | 26.7 mN/m | 38.9 mN/m | – | –
Imidazoline [MZL] | 29.1 mN/m | 45.5 mN/m | 134 min | –
ammonium laureth ether sulfate [AES-A] | 34.9 mN/m | 32.9 mN/m | – | –
CCCCCCCCCCCC(=O)N(C)CC(=O)[O-].[Na+] [Shampoo 4202, Sodium lauroyl sarcosinate (30%)] | 27.9 mN/m | 64.8 mN/m | >1440 min | 24 h
Alkyl glycoside (C8-C10) [APG1] | 28.3 mN/m | 47.3 mN/m | 33 min | –
Fatty alcohol polyoxyethylene ether [AEO-7] | 27.6 mN/m | 29.3 mN/m | 21 min | –
sodium laureth ether sulfate [AES] | 36.4 mN/m | 36.2 mN/m | – | –
